According to PMC12369479 (Journal of Experimental Botany, 2025):
“And” between values parts separate entries of the source, which are not always exact repeats. Equal entries are not always repeated. Where two headings read alike, the source gives them in different places.

What was measured:
ZmADK2 [1] = molecular target: T1, ZmADK2 (Zea mays, UniProt B4FFH8, T4S); assay: Binding affinity by microscale thermophoresis (MST); details: MST
Experimental: (§1) The microscale thermophoresis (MST) method was used to determine the binding affinity of various ribosides for ZmADK2 and PpADK1. Proteins were fluorescently labeled with RED-tris-NTA dye (www.nanotemper-technologies.com) using a 1:1 dye/protein molar ratio. The labeled protein was adjusted to 100–300 nM in 50 mM HEPES buffer pH 7.5, 1 mM MgCl2, and 0.2% Tween. Measurements were performed in premium capillaries on a Monolith NT.115 instrument at 30 °C with 5 s/30 s/5 s laser off/on/off times, respectively, with continuous sample fluorescence recording. Thermal stability was measured by nano-differential scanning fluorimetry on a Prometheus NT.48 instrument (www.nanotemper-technologies.com) in various buffers covering a pH (7.0–9.5) and temperature range (25–95 °C), with a heating rate of 1 °C min^–1, and using NT melting control software. Protein unfolding was measured by detecting the temperature-induced change in tryptophan fluorescence intensity at emission wavelengths of 330±5 nm and 350±5 nm. The melting temperature (Tm) was deduced from the maximum of the first derivative of the fluorescence ratios F350/F330.

PpADK1 [2] = molecular target: T2, PpADK1 (Physcomitrium patens, UniProt O49923); assay: as above; parameters: species or system Physcomitrella patens
T2 construct: made in house; host or cells: E. coli T7 Express Iq
Experimental: as §1

PpADK2 = PpADK2 (Physcomitrium patens, UniProt A9RF27); assay: ADK activity, coupled reaction with PK and LDH; details: 10 mM ATP, pH 7.5, 30 °C; for Specific activity: 100 µM substrate
Experimental: (§2) Substrate analogs were purchased from Sigma-Aldrich (www.sigmaaldrich.com). The ADK activity was measured spectrophotometrically on an Agilent 8453 UV-Vis spectrophotometer (www.agilent.com) at 30 °C using a coupled reaction with pyruvate kinase (PK) and lactate dehydrogenase (LDH) (www.sigmaaldrich.com) ([Blondin et al., 1994]). In this assay, PK converts ADP produced by ADK and phosphoenolpyruvate (PEP) to pyruvate. Subsequently, LDH then converts pyruvate to lactate using the coenzyme NADH, with the conversion monitored at 340 nm. The reaction was conducted in 50 mM Tris–HCl buffer at pH 7.5, containing 50 mM KCl, 6 mM MgCl2, 300 µM PEP, 200 µM NADH, 10 mM ATP, 2 U of PK, and 2.5 U of LDH, using various nucleoside substrates. Kinetic constants were determined using GraphPad Prism 8.0 software (www.graphpad.com). Each measurement was performed six times using repetitive purified enzymes. The activities of all five ADKs were also measured by HPLC ([Moffatt et al., 1991]). The reaction mixture comprised 50 mM Tris–HCl pH 7.5, 5 mM MgCl2, 0.5 mM DTT, 30 mM NaF, 5 mM ATP, 40 µM substrate, and 2–150 ng of purified ADK, depending on the isoform. The reaction was incubated at 30 °C for up to 1 h. […] Similarly, the conversion of cytokinin ribosides to monophosphates was followed on a LiChrosphere 60 RP-Select B (5 µm) LiChroCART column 125-4 column equilibrated with 10 mM triethylamine at pH 5.4 plus 10% methanol, and stepwise eluted with 100% methanol.

ZmADK1 = ZmADK1 (Zea mays, UniProt K7UH13); assay: ADK activity, coupled reaction with PK and LDH; details: 10 mM ATP, pH 7.5, 30 °C; for Specific activity: 100 µM substrate
Experimental: as §2

ZmADK2 [3] = molecular target: T1, ZmADK2; assay: ADK activity, coupled reaction with PK and LDH; format: biochemical; details: pH 7.5
Experimental: as §2

ZmADK3 = ZmADK3 (Zea mays, UniProt A0A1D6E5Z5); assay: ADK activity, coupled reaction with PK and LDH; format: biochemical; details: ZmADK3, 10 mM ATP, pH 7.5, 30 °C; for Specific activity: 100 µM substrate
Experimental: Substrate analogs were purchased from Sigma-Aldrich (www.sigmaaldrich.com). […] In this assay, PK converts ADP produced by ADK and phosphoenolpyruvate (PEP) to pyruvate. Subsequently, LDH then converts pyruvate to lactate using the coenzyme NADH, with the conversion monitored at 340 nm. The reaction was conducted in 50 mM Tris–HCl buffer at pH 7.5, containing 50 mM KCl, 6 mM MgCl2, 300 µM PEP, 200 µM NADH, 10 mM ATP, 2 U of PK, and 2.5 U of LDH, using various nucleoside substrates. Kinetic constants were determined using GraphPad Prism 8.0 software (www.graphpad.com). Each measurement was performed six times using repetitive purified enzymes. […] The reaction mixture comprised 50 mM Tris–HCl pH 7.5, 5 mM MgCl2, 0.5 mM DTT, 30 mM NaF, 5 mM ATP, 40 µM substrate, and 2–150 ng of purified ADK, depending on the isoform. The reaction was incubated at 30 °C for up to 1 h.

PpADK1 [4] = molecular target: T2, PpADK1; assay: ADK activity, coupled reaction with PK and LDH; format: biochemical, Physcomitrella patens; details: 100 µM substrate, 10 mM ATP, pH 7.5, 30 °C
Experimental: as §2

rabbit ADK = test system: rabbit ADK; parameters: method as in Miller et al., 1979a; details: ref Miller et al., 1979a; cited from earlier work
all five ADKs = assay: ADK kinetics, coupled reaction (summary for all isoforms); format: biochemical, Zea mays, Physcomitrella patens; details: range over all five ADKs
Experimental: Substrate analogs were purchased from Sigma-Aldrich (www.sigmaaldrich.com). The ADK activity was measured spectrophotometrically on an Agilent 8453 UV-Vis spectrophotometer (www.agilent.com) at 30 °C using a coupled reaction with pyruvate kinase (PK) and lactate dehydrogenase (LDH) (www.sigmaaldrich.com) ([Blondin et al., 1994]). In this assay, PK converts ADP produced by ADK and phosphoenolpyruvate (PEP) to pyruvate. Subsequently, LDH then converts pyruvate to lactate using the coenzyme NADH, with the conversion monitored at 340 nm. The reaction was conducted in 50 mM Tris–HCl buffer at pH 7.5, containing 50 mM KCl, 6 mM MgCl2, 300 µM PEP, 200 µM NADH, 10 mM ATP, 2 U of PK, and 2.5 U of LDH, using various nucleoside substrates. Kinetic constants were determined using GraphPad Prism 8.0 software (www.graphpad.com). Each measurement was performed six times using repetitive purified enzymes. The activities of all five ADKs were also measured by HPLC ([Moffatt et al., 1991]). The reaction mixture comprised 50 mM Tris–HCl pH 7.5, 5 mM MgCl2, 0.5 mM DTT, 30 mM NaF, 5 mM ATP, 40 µM substrate, and 2–150 ng of purified ADK, depending on the isoform. The reaction was incubated at 30 °C for up to 1 h. […]

WT ZmADK3 = WT ZmADK3 (Zea mays, UniProt A0A1D6E5Z5); assay: Binding affinity by MST; details: read-out: KD ATP
ZmADK3 D19A variant = ZmADK3 D19A variant (Zea mays, UniProt A0A1D6E5Z5, D19A); assay: Binding affinity by MST; details: D19A; MST; read-out: KD ATP
Experimental: (§3) All ZmADK3 mutants were cloned by 30 cycle PCRs using tail-to-tail oriented phosphorylated primers, with the mutation being located at the 5′ end of one of the primers. The following mutants were cloned using the primers given in Supplementary Table S1: D19A, R132A, N222A, E225A, N295A, and D299A. The products were treated with DpnI restriction enzyme, gel purified, and ligated using T4 DNA ligase (www.thermofisher.com). Clones were transformed into T7 express I^qE. coli competent cells.
as §1

ZmADK3 D299A variant = ZmADK3 D299A variant (Zea mays, UniProt A0A1D6E5Z5, D299A); assay: Binding affinity by MST; details: D299A; MST; read-out: KD ATP
Experimental: as §3, §1

ZmADK3 E225A variant = ZmADK3 E225A variant (Zea mays, UniProt A0A1D6E5Z5, E225A); assay: Binding affinity by MST
Experimental: as §3, §1

ZmADK3 N222A variant = ZmADK3 N222A variant (Zea mays, UniProt A0A1D6E5Z5, N222A); assay: Binding affinity by MST
Experimental: as §3, §1

ZmADK3 N295A variant = ZmADK3 N295A variant (Zea mays, UniProt A0A1D6E5Z5, N295A); assay: Binding affinity by MST; details: N295A; MST; read-out: KD ATP
Experimental: as §3, §1

ZmADK3 R132A variant = ZmADK3 R132A variant (Zea mays, UniProt A0A1D6E5Z5, R132A); assay: Binding affinity by MST; details: R132A; MST; read-out: KD ATP
Experimental: as §3, §1

five plant ADKs = assay: Thermal stability by nanoDSF; parameters: species or system Zea mays, Physcomitrella patens; details: all isoforms, ATP complexes at 4 mM
Experimental: as §1
Supplementary Fig. S1. Thermal stability, molecular and kinetic properties of ZmADK2. (A)
Thermal stability of five plant ADKs measured by nanoDSF. The curves for apoforms (in 150 mM
HEPES pH 7.2, 100 mM NaCl, 10 mM MgCl2) and ATP complexes at 4 mM concentrations are shown. […]

[5] = test system: plant ADKs from lupin and Arabidopsis; parameters: method as in Guranowski, 1979; Moffatt et al., 2000; details: ref Guranowski, 1979, Moffatt et al., 2000, read-out: Km for ATP; cited from earlier work
[6] = KD, 50 mM HEPES pH 7.5, 1 mM MgCl2, first or only binding event
[7] = 50 mM HEPES pH 7.5, 1 mM MgCl2, first or only binding event, read-out: KD
[8] = second binding event (ATP site), read-out: second (higher) KD value

ZmADK1, sequence (K7UH13 entry or part of it): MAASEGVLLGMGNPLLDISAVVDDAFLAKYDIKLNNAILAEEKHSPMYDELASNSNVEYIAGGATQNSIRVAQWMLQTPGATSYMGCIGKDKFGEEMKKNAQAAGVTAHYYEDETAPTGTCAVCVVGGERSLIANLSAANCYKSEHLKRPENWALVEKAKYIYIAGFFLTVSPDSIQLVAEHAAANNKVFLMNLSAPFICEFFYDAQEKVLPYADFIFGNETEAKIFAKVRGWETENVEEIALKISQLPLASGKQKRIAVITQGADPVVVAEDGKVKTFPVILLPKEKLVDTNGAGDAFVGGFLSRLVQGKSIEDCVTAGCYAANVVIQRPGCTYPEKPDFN
T2 sequence (O49923 whole entry): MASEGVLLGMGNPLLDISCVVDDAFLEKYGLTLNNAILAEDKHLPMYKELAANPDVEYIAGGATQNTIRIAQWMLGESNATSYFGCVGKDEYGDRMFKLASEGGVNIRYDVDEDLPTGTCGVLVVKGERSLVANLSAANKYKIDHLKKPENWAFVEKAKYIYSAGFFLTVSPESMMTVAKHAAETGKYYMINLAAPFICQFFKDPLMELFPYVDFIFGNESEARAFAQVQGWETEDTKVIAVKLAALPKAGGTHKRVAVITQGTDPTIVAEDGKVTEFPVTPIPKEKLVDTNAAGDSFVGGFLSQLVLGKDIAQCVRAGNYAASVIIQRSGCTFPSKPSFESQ
T1 sequence (B4FFH8 1-342 T4S): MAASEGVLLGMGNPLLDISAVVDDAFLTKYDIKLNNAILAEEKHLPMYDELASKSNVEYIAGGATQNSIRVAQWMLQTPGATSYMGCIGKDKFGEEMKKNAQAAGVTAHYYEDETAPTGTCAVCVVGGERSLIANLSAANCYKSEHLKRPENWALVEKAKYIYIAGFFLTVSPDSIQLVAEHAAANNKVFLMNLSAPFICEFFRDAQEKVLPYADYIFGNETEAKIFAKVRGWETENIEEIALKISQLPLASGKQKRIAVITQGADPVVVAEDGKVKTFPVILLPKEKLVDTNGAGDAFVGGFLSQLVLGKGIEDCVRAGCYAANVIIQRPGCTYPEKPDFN
PpADK2, sequence (A9RF27 entry or part of it): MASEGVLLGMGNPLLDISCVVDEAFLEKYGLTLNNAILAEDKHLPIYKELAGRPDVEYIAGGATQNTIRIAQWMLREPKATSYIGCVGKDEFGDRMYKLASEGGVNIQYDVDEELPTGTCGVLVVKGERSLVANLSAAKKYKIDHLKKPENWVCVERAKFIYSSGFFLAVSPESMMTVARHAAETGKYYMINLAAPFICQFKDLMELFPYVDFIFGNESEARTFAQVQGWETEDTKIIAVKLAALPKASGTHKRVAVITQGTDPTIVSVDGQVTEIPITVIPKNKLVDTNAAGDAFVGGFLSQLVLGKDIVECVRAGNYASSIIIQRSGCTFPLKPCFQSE
ZmADK3, sequence (A0A1D6E5Z5 entry or part of it): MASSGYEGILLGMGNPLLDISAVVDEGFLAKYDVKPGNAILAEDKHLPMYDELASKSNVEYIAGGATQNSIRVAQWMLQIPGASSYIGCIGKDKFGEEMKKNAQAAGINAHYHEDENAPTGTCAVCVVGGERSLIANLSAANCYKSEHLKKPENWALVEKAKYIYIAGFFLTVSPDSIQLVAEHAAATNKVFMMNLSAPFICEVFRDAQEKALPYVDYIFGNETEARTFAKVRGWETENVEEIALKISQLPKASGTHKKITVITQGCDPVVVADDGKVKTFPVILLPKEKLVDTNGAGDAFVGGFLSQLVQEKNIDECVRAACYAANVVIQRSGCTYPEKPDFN
ZmADK3 N222A variant, sequence (A0A1D6E5Z5 entry or part of it N222A): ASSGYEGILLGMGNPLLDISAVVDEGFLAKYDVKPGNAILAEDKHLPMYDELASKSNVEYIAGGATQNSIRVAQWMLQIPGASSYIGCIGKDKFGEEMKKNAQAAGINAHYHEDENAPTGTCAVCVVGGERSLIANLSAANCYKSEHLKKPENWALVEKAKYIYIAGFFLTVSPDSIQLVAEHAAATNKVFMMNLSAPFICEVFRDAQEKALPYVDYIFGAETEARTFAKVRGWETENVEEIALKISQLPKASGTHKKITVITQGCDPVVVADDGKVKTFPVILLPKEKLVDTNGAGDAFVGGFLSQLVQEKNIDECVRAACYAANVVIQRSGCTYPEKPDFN
ZmADK3 E225A variant, sequence (A0A1D6E5Z5 entry or part of it E225A): as the sequence (A0A1D6E5Z5 entry or part of it N222A) above, with A221N, E224A counted along it
ZmADK3 R132A variant, sequence (A0A1D6E5Z5 entry or part of it R132A): as the sequence (A0A1D6E5Z5 entry or part of it N222A) above, with R131A, A221N counted along it
WT ZmADK3, sequence (A0A1D6E5Z5 2-344): as the sequence (A0A1D6E5Z5 entry or part of it N222A) above, with A221N counted along it
ZmADK3 D19A variant, sequence (A0A1D6E5Z5 entry or part of it D19A): as the sequence (A0A1D6E5Z5 entry or part of it N222A) above, with D18A, A221N counted along it
ZmADK3 N295A variant, sequence (A0A1D6E5Z5 entry or part of it N295A): as the sequence (A0A1D6E5Z5 entry or part of it N222A) above, with A221N, N294A counted along it
ZmADK3 D299A variant, sequence (A0A1D6E5Z5 entry or part of it D299A): as the sequence (A0A1D6E5Z5 entry or part of it N222A) above, with A221N, D298A counted along it

Which results are given for `Nc1ncnc2c1ncn2C1OC(COP(=O)(O)O)C(O)C1O` (stereo not shown) [AMP]?
Kd (ZmADK2 [1]; [6]): 247 ± 71 µM; Kd (ZmADK2 [1]; second KD value, KD(2), second binding event (ATP site)): ~8000 µM and 8300 µM; Kd (ZmADK2 [1]; second KD value, second binding event (ATP site)): 8300 ± 2070 µM; Kd (PpADK1 [2]; [7]): 121 µM; Kd (PpADK1 [2]; [8]): 8300 µM

With `OC[C@H]1O[C@@H](n2cnc3c(NCc4ccccc4)ncnc32)[C@H](O)[C@@H]1O` [BAPR, 6-benzylaminopurine riboside] as the compound, how does the Specific activity (PpADK2) read?
Its Specific activity is 0.89±0.07 nmol s^–1 mg^–1.

What about the Specific activity (ZmADK1) of the same compound?
The Specific activity was 3.3±0.2 nmol s^–1 mg^–1.

And the Specific activity (ZmADK2 [3]; ZmADK2, 100 µM substrate, 10 mM ATP, 30 °C)?
Its Specific activity is 5.1±0.6 nmol s^–1 mg^–1.

And the Specific activity (ZmADK3)?
The Specific activity was 5.3±0.4 nmol s^–1 mg^–1.

What about the Specific activity (PpADK1 [4]) of the same compound?
The Specific activity was 0.84±0.04 nmol s^–1 mg^–1.

And the Km (rabbit ADK)?
Its Km is 12 µM.

And the “activity compared with Ado” value (rabbit ADK)?
The value was 29%.

What does the source list for `CC(C)=CCNc1ncnc2c1ncn2C1OC(CO)C(O)C1O` (stereo not shown) [iPR, N ^6-isopentenyl adenosine]?
Specific activity (PpADK2): 0.83±0.08 nmol s^–1 mg^–1; Km (PpADK2): 4 ± 0.3 µM; kcat (PpADK2): 0.03±0.001 s^–1; Specific activity (ZmADK1): 2.8±0.3 nmol s^–1 mg^–1; Km (ZmADK1): 8.5 ± 0.7 µM; kcat (ZmADK1): 0.10±0.002 s^–1; Specific activity (ZmADK2 [3]): 4.1±0.4 nmol s^–1 mg^–1; kcat (ZmADK2 [3]): 0.19±0.01 s^–1; Specific activity (ZmADK3): 5.1±0.3 nmol s^–1 mg^–1; Km (ZmADK3): 4.3 ± 0.4 µM; kcat (ZmADK3): 0.22±0.007 s^–1; Specific activity (PpADK1 [4]): 0.93±0.11 nmol s^–1 mg^–1; Kd (ZmADK2 [1]; [6]): 4.8 ± 1.1 µM; Kd (PpADK1 [2]; [6]): 5.5 µM; Km (all five ADKs): 4 to 12 µM; Km (rabbit ADK): 7 µM; activity compared with Ado (rabbit ADK): 69%

With `Nc1ncnc2c1ncn2[C@@H]1O[C@H](COP(=O)(O)OP(=O)(O)OP(=O)(O)O)[C@@H](O)[C@H]1O` [ATP] as the compound, how does the Kd (ZmADK2 [1]; [7]) read?
The Kd was 2200 ± 620 µM.

What about the Kd (PpADK1 [2]; 50 mM HEPES pH 7.5, 1 mM MgCl2, read-out: KD) of the same compound?
The Kd was 2900 ± 700 µM.

And the Kd (WT ZmADK3)?
The Kd was 2900 ± 1100 µM.

What about the Kd (ZmADK3 D19A variant) of the same compound?
Its Kd is 4900 ± 1500 µM.

What about the Kd (ZmADK3 D299A variant) of the same compound?
The Kd was 9100 ± 2100 µM.

What about the “lower affinity for ATP compared with the WT” value (ZmADK3 E225A variant; E225A variant of ZmADK3) of the same compound?
Its value is ~ 6 fold.

And the Kd (ZmADK3 E225A variant; E225A, MST, read-out: KD ATP)?
Its Kd is 16000 ± 4500 µM.

And the “lower affinity for ATP compared with the WT” value (ZmADK3 N222A variant; N222A variant of ZmADK3)?
Its value is 7 fold.

And the Kd (ZmADK3 N222A variant; N222A, MST, read-out: KD ATP)?
Its Kd is 20700 ± 4400 µM.

And the Kd (ZmADK3 N295A variant)?
Its Kd is 41800 ± 10000 µM.

And the Kd (ZmADK3 R132A variant)?
The Kd was 8500 ± 2100 µM.

What about the “stabilizing effect on melting temperature (Tm)” value (five plant ADKs) of the same compound?
Its value is “up to 4 °C”.

And the Km [5]?
Its Km is 300 to 400 µM.

Which results are given for `Nc1ncnc2c1ncn2[C@@H]1O[C@H](COP(=O)(O)OP(=O)(O)OP(=O)(O)OP(=O)(O)OP(=O)(O)OC[C@H]2O[C@@H](n3cnc4c(N)ncnc43)[C@H](O)[C@@H]2O)[C@@H](O)[C@H]1O` [AP5A, diadenosine pentaphosphate]?
Kd (ZmADK2 [1]; [7]): 14.5 ± 9.2 µM; Kd (ZmADK2 [1]; second binding event (ATP site), read-out: second KD value): 949 ± 46 µM; Kd (PpADK1 [2]; [7]): 8.1 ± 1.1 µM; Kd (PpADK1 [2]; [8]): 630 ± 120 µM
